How the values were obtained:
[1] = Pain relief, THC alone versus cannabis extract
[2] = some clinical studies and anecdotal reports; a perception; cited from earlier work
[3] = Reports of subjects taking THCV; assay type: in vivo
From the text: In a further aspect the invention also provides compositions which have specific ratios of tetrahydrocannabinovarin (THCV) or cannabidivarin (CBDV).

## CCCCCc1cc(O)c2c(c1)OC(C)(C)[C@@H]1CCC(C)=C[C@@H]21 [THC, tetrahydrocannabinol]
[1]
  degree of pain relief: lower degree of pain relief

## C=C(C)[C@@H]1CCC(C)=C[C@H]1c1c(O)cc(CCCCC)cc1O [CBD, cannabidiol]
[2]
  effect on psychoactive effects of THC: modifies the psychoactive effects of THC

## CCCc1cc(O)c2c(c1)OC(C)(C)[C@@H]1CCC(C)=C[C@@H]21 [THCV, tetrahydrocannabinovarin]
[3]
  hangover: less severe hangover
[3]; compared with THC
  mood enhancement: less disturbing than that produced by THC
